Reference: ChEMBL document CHEMBL1201862, “PubChem BioAssay data set” (2004)
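Grown in 96-well plates, cells were treated for 48 hours with each compound at five concentrations. Insufficient inhibition: endpoint recorded as highest concentration tested. GI50: concentration for 50% inhibition of growth.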 Active and inactive are the calls of the source. Rule as the data show it: active = GI50 up to about 1.1 µM and inactive = higher.

What was measured:
Assay in all cases: DTP human tumour cell line panel, 48 h
HCT-116 = system: HCT-116
UO-31 = system: UO-31
NCI-H522 = system: NCI-H522
COLO 205 = system: COLO 205
786-0 = system: 786-0
TK-10 = system: TK-10
ACHN = system: ACHN
MDA-MB-231 = system: MDA-MB-231
OVCAR-4 = system: OVCAR-4
SNB-75 = system: SNB-75
MOLT-4 = system: MOLT-4
SF-295 = system: SF-295
OVCAR-8 = system: OVCAR-8
OVCAR-5 = system: OVCAR-5
A549 = system: A549
HT-29 = system: HT-29
UACC-257 = system: UACC-257
DU-145 = system: DU-145
CCRF-CEM = system: CCRF-CEM

Measured: GI50

Brc1ccc2c3c1[C@H]1O[C@H]1c1cccc(c1-3)[C@@H]1O[C@H]21
inactive: HCT-116 13.2 µM | UO-31 17.3 µM | NCI-H522 10.4 µM | COLO 205 19.3 µM | 786-0 12.4 µM | TK-10 17.7 µM | ACHN 15.3 µM | MDA-MB-231 20.6 µM | OVCAR-4 15.1 µM | SNB-75 13.2 µM | MOLT-4 3.61 µM | SF-295 15.5 µM | OVCAR-8 15.6 µM | OVCAR-5 20.2 µM | A549 22 µM | HT-29 8.11 µM | UACC-257 14.8 µM | DU-145 13 µM

c1ccc(C2CC(N3CCOCC3)=Nc3ccccc3N2)cc1 (centres undefined)
inactive: HCT-116 > 100 µM | UO-31 > 100 µM | NCI-H522 > 100 µM | COLO 205 > 100 µM | 786-0 > 100 µM | TK-10 > 100 µM | ACHN > 100 µM | MDA-MB-231 > 100 µM | OVCAR-4 > 100 µM | MOLT-4 70.6 µM | SF-295 > 100 µM | OVCAR-8 > 100 µM | OVCAR-5 > 100 µM | A549 > 100 µM | HT-29 > 100 µM | UACC-257 > 100 µM | DU-145 > 100 µM | CCRF-CEM > 100 µM

OC[C@H]1O[C@@H]2O[C@@](COCc3ccccc3)([C@H](OCc3ccccc3)[C@H]2O)[C@@H]1OCc1ccccc1
inactive: HCT-116 16.5 µM | UO-31 15.6 µM | NCI-H522 17.3 µM | COLO 205 17.4 µM | 786-0 17 µM | TK-10 18.6 µM | ACHN 17.3 µM | MDA-MB-231 15.3 µM | OVCAR-4 2.99 µM | SNB-75 16.2 µM | MOLT-4 4.98 µM | SF-295 15.3 µM | OVCAR-8 14.6 µM | OVCAR-5 17.1 µM | A549 14.7 µM | HT-29 4.81 µM | UACC-257 17.5 µM | DU-145 16.5 µM | CCRF-CEM 13.4 µM

O=C(c1cccc(F)c1F)N1CCc2c([nH]c3ccccc23)C1c1ccc2c(c1)OCO2 (centres undefined)
inactive: HCT-116 8 µM | UO-31 10.9 µM | NCI-H522 7.8 µM | COLO 205 3.59 µM | 786-0 22.5 µM | TK-10 22.5 µM | ACHN 18.8 µM | MDA-MB-231 7.87 µM | OVCAR-4 11.1 µM | SNB-75 1.99 µM | MOLT-4 5.24 µM | SF-295 3.09 µM | OVCAR-8 31.3 µM | OVCAR-5 30.1 µM | A549 7.08 µM | HT-29 8.32 µM | UACC-257 11.2 µM | DU-145 18.2 µM | CCRF-CEM 5.83 µM
